# Results taken from ChEMBL document CHEMBL1124923, “A novel, nonsteroidal inhibitor of androgen binding to the rat androgen binding protein: diethyl [[[3-(2,6-dimethyl-4-pyridinyl)-4-fluorophenyl]amino]methylene] propanedioate” (J Med Chem, 1990).
# Target: T1, Sex hormone-binding globulin (Rattus norvegicus, UniProt P08689)
# T1 sequence (P08689 whole entry): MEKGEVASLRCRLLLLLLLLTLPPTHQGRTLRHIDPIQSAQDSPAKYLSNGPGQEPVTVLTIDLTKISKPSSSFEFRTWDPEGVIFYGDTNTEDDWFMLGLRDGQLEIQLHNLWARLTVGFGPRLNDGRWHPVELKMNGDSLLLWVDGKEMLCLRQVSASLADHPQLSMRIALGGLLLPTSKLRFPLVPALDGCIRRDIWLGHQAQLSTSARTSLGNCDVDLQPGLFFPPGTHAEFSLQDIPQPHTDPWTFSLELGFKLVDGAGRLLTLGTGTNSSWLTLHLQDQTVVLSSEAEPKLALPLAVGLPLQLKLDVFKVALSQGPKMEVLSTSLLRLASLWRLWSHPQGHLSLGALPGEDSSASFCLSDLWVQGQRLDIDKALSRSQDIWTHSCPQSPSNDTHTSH
# Experiment: Inhibition of rat androgen binding protein (rABP) (n=9)
row,Compound,IC50 [nM]
1,C[C@]1(O)CC[C@H]2[C@@H]3CCC4=CC(=O)CCC4=C3C=C[C@@]21C [METRIBOLONE],3.7

# Target: T2, Sex hormone-binding globulin (Homo sapiens) (UniProt P04278)
# T2 sequence (whole entry): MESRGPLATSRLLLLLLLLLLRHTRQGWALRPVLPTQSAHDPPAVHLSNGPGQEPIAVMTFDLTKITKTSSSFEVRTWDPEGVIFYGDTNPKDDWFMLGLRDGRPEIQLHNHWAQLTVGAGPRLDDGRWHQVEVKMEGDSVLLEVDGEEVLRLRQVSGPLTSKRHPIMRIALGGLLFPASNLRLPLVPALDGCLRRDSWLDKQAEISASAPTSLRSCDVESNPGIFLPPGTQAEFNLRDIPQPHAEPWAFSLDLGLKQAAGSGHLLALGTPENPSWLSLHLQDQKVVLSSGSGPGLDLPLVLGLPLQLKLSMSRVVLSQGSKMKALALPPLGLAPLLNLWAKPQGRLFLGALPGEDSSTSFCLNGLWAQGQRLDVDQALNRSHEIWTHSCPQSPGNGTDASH
# Experiment: In vitro relative binding affinity against hSHBG (human sex hormone binding globulin)
row,Compound,relative binding affinity (RBA)
1,CCOC(=O)C(/C=N/c1ccc(F)c(-c2cc(C)nc(C)c2)c1)=C(/O)OCC,< 0.01
2,CCOC(=O)C(/C=N/c1cccc(-c2cc(C)nc(C)c2)c1)=C(\O)OCC,< 0.01
3,Cc1cc(-c2ccccc2F)cc(C)n1,< 0.01
4,Cc1cc(-c2cc(N)ccc2F)cc(C)n1,< 0.01
5,C[C@]1(O)CC[C@H]2[C@@H]3CCC4=CC(=O)CCC4=C3C=C[C@@]21C [METRIBOLONE],0.2
6,Cc1cc(-c2cc([N+](=O)[O-])ccc2F)cc(C)n1,< 0.01
7,Cc1cc2c(c(C)n1)c(=O)oc1ccccc12,< 0.01
